Measured values: patent publication US20240158418A1 (C4 Therapeutics, Inc., priority 2021, published 2024)

biological target: T1, EGFR L858R-T790M (Homo sapiens, UniProt P00533, L858R/T790M); assay: EGFR degradation, Total EGFR (L858R-specific) HTRF, NCI-H1975; type: cell-based; conditions: Table 9A; NCI-H1975 cells, 6 hours, Total EGFR HTRF; read-out: H1975 EGFR DC50
T1 construct: NCI-H1975 (harboring EGFR heterozygous L858R-T790M mutations); host or cells: NCI-H1975
In short: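 HTRF read-outs: pY1068 phospho-EGFR for IC50; total EGFR (pan-EGFR in A431, L858R-specific in mutant lines) for DC50. Compounds were titrated 11 points, half-log, from 10 μM in duplicate onto cells in 10% FBS RPMI, incubated 6 h at 37°C.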

T1 sequence (P00533 25-1210 T790M/L858R): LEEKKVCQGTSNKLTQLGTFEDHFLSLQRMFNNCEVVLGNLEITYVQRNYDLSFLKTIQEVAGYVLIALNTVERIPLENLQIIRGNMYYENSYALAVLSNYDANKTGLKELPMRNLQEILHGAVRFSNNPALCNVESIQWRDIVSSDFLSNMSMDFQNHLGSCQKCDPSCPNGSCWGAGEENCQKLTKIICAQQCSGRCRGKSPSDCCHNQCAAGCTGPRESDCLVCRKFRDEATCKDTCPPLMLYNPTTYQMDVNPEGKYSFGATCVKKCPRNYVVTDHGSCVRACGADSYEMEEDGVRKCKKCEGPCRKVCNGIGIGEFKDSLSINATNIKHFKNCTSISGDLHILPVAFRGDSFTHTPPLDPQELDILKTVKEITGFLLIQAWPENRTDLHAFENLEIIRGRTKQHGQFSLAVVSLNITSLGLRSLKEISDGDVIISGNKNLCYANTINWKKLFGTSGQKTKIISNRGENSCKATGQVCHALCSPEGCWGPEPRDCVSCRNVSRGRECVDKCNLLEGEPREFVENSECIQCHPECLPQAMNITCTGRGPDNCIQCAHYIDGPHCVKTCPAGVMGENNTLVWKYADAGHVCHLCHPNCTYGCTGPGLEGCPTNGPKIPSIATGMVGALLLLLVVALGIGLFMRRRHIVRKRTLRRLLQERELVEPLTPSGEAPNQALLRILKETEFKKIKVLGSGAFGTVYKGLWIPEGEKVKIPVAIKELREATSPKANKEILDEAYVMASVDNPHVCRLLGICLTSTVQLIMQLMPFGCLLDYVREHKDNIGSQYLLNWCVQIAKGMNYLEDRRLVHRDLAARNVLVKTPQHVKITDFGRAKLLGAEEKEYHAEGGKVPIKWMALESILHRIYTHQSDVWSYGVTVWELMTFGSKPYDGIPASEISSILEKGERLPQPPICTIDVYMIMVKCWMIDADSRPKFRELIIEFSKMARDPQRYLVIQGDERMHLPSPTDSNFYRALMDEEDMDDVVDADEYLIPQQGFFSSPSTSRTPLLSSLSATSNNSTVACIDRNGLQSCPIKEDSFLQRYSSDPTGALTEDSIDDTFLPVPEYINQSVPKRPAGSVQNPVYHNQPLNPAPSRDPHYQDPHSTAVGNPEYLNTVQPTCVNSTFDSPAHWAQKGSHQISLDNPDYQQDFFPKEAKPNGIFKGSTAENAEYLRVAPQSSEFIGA

| Structure (SMILES) | DC50 |
| --- | --- |
| O=C1NC(=O)C2(Nc3ccc(C4CCN(CC(=O)N5CCC(Oc6ccc(-c7cc(F)c8c(c7)C(=O)N(C(C(=O)Nc7nccs7)c7ncn9c7CCC9)C8)cc6)CC5)CC4)cc3)CC1C2 (stereo not shown) [Compound 38, 2-(6,7-dihydro-5H-pyrrolo[1,2-c]imidazol-1-yl)-2-(6-(4-((1-(2-(4-(4-((2,4-dioxo-3-azabicyclo[3.1.1]heptan-1-yl)amino)phenyl)piperidin-1-yl)acetyl)piperidin-4-yl)oxy)phenyl)-4-fluoro-1-oxoisoindolin-2-yl)-N-(thiazol-2-yl)acetamide] | 50 to 150 nM |
| O=C1CCC(Nc2ccc(C3CCN(CC(=O)N4CCN(c5ccc(-c6cc(F)c7cn(C(C(=O)Nc8nccs8)c8ncn9c8CCC9)nc7c6)cn5)CC4)CC3)c(F)c2)C(=O)N1 (stereo not shown) [Compound 64, 2-(6,7-dihydro-5H-pyrrolo[1,2-c]imidazol-1-yl)-2-[6-[6-[4-[2-[4-[4-[(2,6-dioxo-3-piperidyl)amino]-2-fluoro-phenyl]-1-piperidyl]acetyl]piperazin-1-yl]-3-pyridyl]-4-fluoro-indazol-2-yl]-N-thiazol-2-yl-acetamide] | 50 to 150 nM |
| O=C1CCC(Nc2ccc(C3CCN(CC(=O)N4CCC(Oc5ccc(-c6cc(F)c7c(c6)C(=O)N(C(C(=O)Nc6nccs6)c6ncn8c6CCC8)C7)cc5)CC4)CC3)nc2)C(=O)N1 (stereo not shown) [Compound 36, 2-(6,7-dihydro-5H-pyrrolo[1,2-c]imidazol-1-yl)-2-(6-(4-((1-(2-(4-(5-((2,6-dioxopiperidin-3-yl)amino)pyridin-2-yl)piperidin-1-yl)acetyl)piperidin-4-yl)oxy)phenyl)-4-fluoro-1-oxoisoindolin-2-yl)-N-(thiazol-2-yl)acetamide] | < 50 nM |

Other lines, results leading:

| DC50 | Structure (SMILES) |
| --- | --- |
| < 50 nM | O=C1CCC(Nc2ccc(C3CCN(CC(=O)N4CCN(c5ccc(-c6cc(F)c7cn(C(C(=O)Nc8nccs8)c8ncn9c8CCC9)nc7c6)cn5)CC4)CC3)cc2)C(=O)N1 (stereo not shown) [Compound 65, 2-(6,7-dihydro-5H-pyrrolo[1,2-c]imidazol-1-yl)-2-[6-[6-[4-[2-[4-[4-[(2,6-dioxo-3-piperidyl)amino]phenyl]-1-piperidyl]acetyl]piperazin-1-yl]-3-pyridyl]-4-fluoro-indazol-2-yl]-N-thiazol-2-yl-acetamide] |
| < 50 nM | O=C1CCC(Nc2ccc(N3CCC(O)(CC(=O)N4CCN(c5ccc(-c6cc(F)c7c(c6)C(=O)N(C(C(=O)Nc6nccs6)c6ncn8c6CCC8)C7)cc5)CC4)CC3)c(C(F)(F)F)c2)C(=O)N1 (stereo not shown) [Compound 18, 2-(6,7-dihydro-5H-pyrrolo[1,2-c]imidazol-1-yl)-2-(6-(4-(4-(2-(1-(4-((2,6-dioxopiperidin-3-yl)amino)-2-(trifluoromethyl)phenyl)-4-hydroxypiperidin-4-yl)acetyl)piperazin-1-yl)phenyl)-4-fluoro-1-oxoisoindolin-2-yl)-N-(thiazol-2-yl)acetamide] |
| 50 to 150 nM | O=C1CCC(Nc2ccc(C3CCN(CC(=O)N4CCN(c5ccc(-c6ccc7cn(C(C(=O)Nc8nccs8)c8ncn9c8CCC9)nc7c6F)cn5)CC4)CC3)cc2)C(=O)N1 (racemic) [Compound 63, (2RS)-2-(6,7-Dihydro-5H-pyrrolo[1,2-c]imidazol-1-yl)-2-[7-fluoro-6-[6-[4-[2-[4-[4-[[(3RS)-2,6-dioxo-3-piperidyl]amino]phenyl]-1-piperidyl]acetyl]piperazin-1-yl]-3-pyridyl]indazol-2-yl]-N-thiazol-2-yl-acetamide] |
| 50 to 150 nM | O=C1CC[C@H](Nc2ccc(C3CCN(CC(=O)N4CCC(Oc5ccc(-c6cc(F)c7c(c6)C(=O)N(C(C(=O)Nc6nccs6)c6ncn8c6CCC8)C7)cc5)CC4)CC3)c(F)c2)C(=O)N1 (stereo partly drawn) [Compound 39, 2-(6,7-dihydro-5H-pyrrolo[1,2-c]imidazol-1-yl)-2-(6-(4-((1-(2-(4-(4-(((S)-2,6-dioxopiperidin-3-yl)amino)-2-fluorophenyl)piperidin-1-yl)acetyl)piperidin-4-yl)oxy)phenyl)-4-fluoro-1-oxoisoindolin-2-yl)-N-(thiazol-2-yl)acetamide] |

same assay, conditions: Table 9B; NCI-H1975 cells, 6 hours, Total EGFR HTRF; read-out: H1975 EGFR DC50

| Structure (SMILES) | DC50 |
| --- | --- |
| Cn1nc(N2CCC(=O)NC2=O)c2cc(F)c(C3CCN(CC(=O)N4CC5(C4)CN(c4ccc(-c6cc(F)c7c(c6)C(=O)N(C(C(=O)Nc6nccs6)c6ncn8c6CCC8)C7)cc4)C5)CC3(F)F)cc21 (single isomer, unassigned; isomer 2) [Compound 130, 2-(6,7-dihydro-5H-pyrrolo[1,2-c]imidazol-1-yl)-2-[6-[4-[2-[2-[4-[3-(2,4-dioxohexahydropyrimidin-1-yl)-5-fluoro-1-methyl-indazol-6-yl]-3,3-difluoro-1-piperidyl]acetyl]-2,6-diazaspiro[3.3]heptan-6-yl]phenyl]-4-fluoro-1-oxo-isoindolin-2-yl]-N-thiazol-2-yl-acetamide, isomer 2] | < 50 nM |
| O=C1CC[C@H](Nc2ccc(C3CCN(C(=O)CC4CC5(C4)CN(c4ccc(-c6cc(F)c7c(c6)C(=O)N(C(C(=O)Nc6nccs6)c6ncn8c6CCC8)C7)cc4)C5)CC3)c(F)c2)C(=O)N1 (stereo partly drawn) [Compound 100, 2-(6,7-dihydro-5H-pyrrolo[1,2-c]imidazol-1-yl)-2-(6-(4-(6-(2-(4-(4-(((S)-2,6-dioxopiperidin-3-yl)amino)-2-fluorophenyl)piperidin-1-yl)-2-oxoethyl)-2-azaspiro[3.3]heptan-2-yl)phenyl)-4-fluoro-1-oxoisoindolin-2-yl)-N-(thiazol-2-yl)acetamide] | < 50 nM |
| O=C1CC[C@H](Nc2ccc(N3CCC(O)(CC(=O)N4CC5(C4)CN(c4ccc(-c6cc(F)c7c(c6)C(=O)N(C(C(=O)Nc6nccs6)c6ncn8c6CCC8)C7)cn4)C5)CC3)c(F)c2)C(=O)N1 (stereo partly drawn) [Compound 110, 2-(6,7-dihydro-5H-pyrrolo[1,2-c]imidazol-1-yl)-2-(6-(6-(6-(2-(1-(4-(((S)-2,6-dioxopiperidin-3-yl)amino)-2-fluorophenyl)-4-hydroxypiperidin-4-yl)acetyl)-2,6-diazaspiro[3.3]heptan-2-yl)pyridin-3-yl)-4-fluoro-1-oxoisoindolin-2-yl)-N-(thiazol-2-yl)acetamide] | < 50 nM |
| O=C1CC[C@H](Nc2ccc(N3CCC(O)(CC(=O)N4CC5(C4)CN(c4ccc(-c6cc(F)c7c(c6)C(=O)N(C(C(=O)Nc6nccs6)c6ncn8c6C[C@@H](F)C8)C7)cc4)C5)CC3)c(F)c2)C(=O)N1 (stereo partly drawn) [Compound 131, 2-[6-[4-[2-[2-[1-[4-[[(3S)-2,6-dioxo-3-piperidyl]amino]-2-fluoro-phenyl]-4-hydroxy-4-piperidyl]acetyl]-2,6-diazaspiro[3.3]heptan-6-yl]phenyl]-4-fluoro-1-oxo-isoindolin-2-yl]-2-[(6R)-6-fluoro-6,7-dihydro-5H-pyrrolo[1,2-c]imidazol-1-yl]-N-thiazol-2-yl-acetamide] | < 50 nM |
| Cn1nc(N2CCC(=O)NC2=O)c2ccc(C3CCN(CC(=O)N4CC5(CCN(c6ccc(-c7cc(F)c8c(c7)C(=O)N(C(C(=O)Nc7nccs7)c7ncn9c7CCC9)C8)cc6)CC5)C4)CC3(F)F)cc21 (stereo not shown) [Compound 106, 2-(6,7-dihydro-5H-pyrrolo[1,2-c]imidazol-1-yl)-2-(6-(4-(2-(2-(4-(3-(2,4-dioxotetrahydropyrimidin-1(2H)-yl)-1-methyl-1H-indazol-6-yl)-3,3-difluoropiperidin-1-yl)acetyl)-2,7-diazaspiro[3.5]nonan-7-yl)phenyl)-4-fluoro-1-oxoisoindolin-2-yl)-N-(thiazol-2-yl)acetamide] | < 50 nM |

Other lines, results leading:

| DC50 | Structure (SMILES) |
| --- | --- |
| < 50 nM | Cn1nc(N2CCC(=O)NC2=O)c2ccc(C3CCN(CC(=O)N4CCC(n5cc(-c6cc(F)c7c(c6)C(=O)N(C(C(=O)Nc6nccs6)c6ncn8c6CCC8)C7)cn5)CC4)CC3(F)F)cc21 (stereo not shown) [Compound 105, 2-(6,7-dihydro-5H-pyrrolo[1,2-c]imidazol-1-yl)-2-(6-(1-(1-(2-(4-(3-(2,4-dioxotetrahydropyrimidin-1(2H)-yl)-1-methyl-1H-indazol-6-yl)-3,3-difluoropiperidin-1-yl)acetyl)piperidin-4-yl)-1H-pyrazol-4-yl)-4-fluoro-1-oxoisoindolin-2-yl)-N-(thiazol-2-yl)acetamide] |
| < 50 nM | O=C1CCC(Nc2cc(F)c(N3CCC(O)(CC(=O)N4CC5(C4)CN(c4ccc(-c6cc(F)c7c(c6)C(=O)N(C(C(=O)Nc6nccs6)c6ncn8c6CCC8)C7)cc4)C5)CC3)cc2F)C(=O)N1 (stereo not shown) [Compound 135, 2-(6,7-dihydro-5H-pyrrolo[1,2-c]imidazol-1-yl)-2-[6-[4-[2-[2-[1-[4-[(2,6-dioxo-3-piperidyl)amino]-2,5-difluoro-phenyl]-4-hydroxy-4-piperidyl]acetyl]-2,6-diazaspiro[3.3]heptan-6-yl]phenyl]-4-fluoro-1-oxo-isoindolin-2-yl]-N-thiazol-2-yl-acetamide] |
| 50 to 150 nM | Cn1nc(N2CCC(=O)NC2=O)c2ccc([C@H]3CCN(C(=O)CN4CC5(CCN(c6ccc(-c7cc(F)c8c(c7)C(=O)N(C(C(=O)Nc7nccs7)c7ncn9c7CCC9)C8)cc6)CC5)C4)CC3(F)F)cc21 (stereo partly drawn) [Compound 143, 2-(6,7-dihydro-5H-pyrrolo[1,2-c]imidazol-1-yl)-2-[6-[4-[2-[2-[(4R)-4-[3-(2,4-dioxohexahydropyrimidin-1-yl)-1-methyl-indazol-6-yl]-3,3-difluoro-1-piperidyl]-2-oxo-ethyl]-2,7-diazaspiro[3.5]nonan-7-yl]phenyl]-4-fluoro-1-oxo-isoindolin-2-yl]-N-thiazol-2-yl-acetamide] |
| > 150 nM | O=C1CCC(c2ccc(N3CCC(O)(CC(=O)N4CC5(C4)CN(c4ccc(-c6cc(F)c7c(c6)C(=O)N(C(C(=O)Nc6nccs6)c6ncn8c6CCC8)C7)cc4)C5)CC3)c(F)c2)C(=O)N1 (stereo not shown) [Compound 157, 2-(6,7-dihydro-5H-pyrrolo[1,2-c]imidazol-1-yl)-2-(6-(4-(6-(2-(1-(4-(2,6-dioxopiperidin-3-yl)-2-fluorophenyl)-4-hydroxypiperidin-4-yl)acetyl)-2,6-diazaspiro[3.3]heptan-2-yl)phenyl)-4-fluoro-1-oxoisoindolin-2-yl)-N-(thiazol-2-yl)acetamide] |
